These results are taken from paper PMC8157715 (2020).

Experiment [1] relates to A10-excised Apt (DNA, aptamer) GTATTGCGGAGGAAGGTTTTTAACCTTCGGGG
In words: SYBR Green I fluorescence. The following applies: 100 mM NaCl, 5 mM MgCl2; 20 mM HEPES pH 7.6; SYBR Green I displaced; 2 mM.

In experiment [2] the test system is Wide-type adenosine Apt (wild-type aptamer) (DNA, aptamer) ACCTGGGGGAGTATTGCGGAGGAAGGT
In words: SYBR Green I fluorescence. Particulars: 100 mM NaCl, 5 mM MgCl2, 20 mM HEPES pH 7.6, 2 mM.

Experiment [3] relates to Res-A10-Right cut (DNA, aptamer) GTATTGCGGAGGAAGGTTTTTAACCTTCGGGGA
In words: SYBR Green I fluorescence. The following applies: 100 mM NaCl, 5 mM MgCl2; 20 mM HEPES pH 7.6; SYBR Green I displaced; 2 mM.

Experiment [4] deals with Duplex-2 (DNA, hairpin) GTATTGCGCCCCGAAGGTTTTTAACCTTCGGGG
In words: SYBR Green I fluorescence. The following applies: 100 mM NaCl, 5 mM MgCl2; 20 mM HEPES pH 7.6; 12.5 nM SYBR Green I; 2 mM.

For experiment [5], the system named is Res-A10-Right cut (DNA, aptamer) GTATTGCGGAGGAAGGTTTTTAACCTTCGGGGA
The experiment in a line: SYBR Green I fluorescence titration. Particulars: 100 mM NaCl, 5 mM MgCl2, 20 mM HEPES pH 7.6.

Experiment [6] relates to A10-excised Apt (DNA, aptamer) GTATTGCGGAGGAAGGTTTTTAACCTTCGGGG
The experiment in a line: SYBR Green I fluorescence titration. The following applies: 100 mM NaCl, 5 mM MgCl2, 20 mM HEPES pH 7.6.

The test system of experiment [7] is Res-A10-Right cut (DNA, aptamer) GTATTGCGGAGGAAGGTTTTTAACCTTCGGGGA
In words: ITC. The following applies: 100 mM NaCl, 5 mM MgCl2, 20 mM HEPES pH 7.6, 10 °C.

Experiment [8] deals with Res-A10-Left cut (DNA, aptamer) AGTATTGCGGAGGAAGGTTTTTAACCTTCGGGG
In words: SYBR Green I fluorescence titration. The following applies: 100 mM NaCl, 5 mM MgCl2; 20 mM HEPES pH 7.6; SYBR Green I (50 nM) displaced; apparent.

Experiment [9] deals with One-site Apt (DNA, aptamer) ACCTTCGGGGAGTATTGCGGAGGAAGGT
The experiment in a line: ITC. Particulars: 100 mM NaCl, 5 mM MgCl2; 20 mM HEPES pH 7.6, 10 °C, one-site model.

The test system of experiment [10] is Duplex-1 (DNA, hairpin) GGGGGTATTGCCCCCGCAAGGTTTTTAACCTTG
In words: SYBR Green I fluorescence. The following applies: 100 mM NaCl, 5 mM MgCl2; 20 mM HEPES pH 7.6; 12.5 nM SYBR Green I; 2 mM.

The subject of experiment [11] is A10-excised Apt (DNA, aptamer) GTATTGCGGAGGAAGGTTTTTAACCTTCGGGG
The experiment in a line: ITC. The following applies: 100 mM NaCl, 5 mM MgCl2, 20 mM HEPES pH 7.6, 10 °C.

For experiment [12], the system named is Res-A10-Left cut (DNA, aptamer) AGTATTGCGGAGGAAGGTTTTTAACCTTCGGGG
In words: SYBR Green I fluorescence. Particulars: 100 mM NaCl, 5 mM MgCl2; 20 mM HEPES pH 7.6; SYBR Green I displaced; drop two thirds of adenosine's.

[13] abbreviates: SYBR Green I (50 nM) displaced, apparent.
[14] abbreviates: 1 mM AMP in syringe, extremely weak, undetectable heat.

With `Cn1c(=O)c2[nH]cnc2n(C)c1=O`, the binding result in experiment [1] and in [2] (SYBR Green I displaced) was “no” each time.

In the case of `Nc1ncnc2c1ncn2[C@@H]1O[C@H](COP(=O)(O)OP(=O)(O)OP(=O)(O)O)[C@@H](O)[C@H]1O`, the binding result is given as “no” in experiment [1], “no” in [3] and “yes” in [2] (50 nM SYBR Green I displaced).

Turning to `Nc1ccn([C@@H]2O[C@H](CO)[C@@H](O)[C@H]2O)c(=O)n1`, the binding entry in experiment [1], in experiment [3], in experiment [4] and in [2] (SYBR Green I displaced) was “no” each time.

In the case of `Nc1ncnc2c1ncn2[C@@H]1O[C@H](CO)[C@@H](O)[C@H]1O`, in experiment [5] (setting [13]), the half saturation is 0.94 mM. For the same compound, the Kd came to 370 µM in [6] (setting [13]); 21.0 ± 3.8 µM in experiment [7] (one-site model); 570 µM in [8]; 2.8 ± 0.1 µM in experiment [9]; 14.8 ± 2.1 µM in experiment [11] (one-site model). The binding result in experiment [4] was “no”; in experiment [2] (50 nM SYBR Green I displaced) it was “yes”; in experiment [10] it was “no”.

On to `Nc1nc2c(ncn2[C@@H]2O[C@H](CO)[C@@H](O)[C@H]2O)c(=O)[nH]1`, for which the binding entry in experiment [1] and in experiment [2] (SYBR Green I displaced) was “no” throughout.

Take `O=c1ccn([C@@H]2O[C@H](CO)[C@@H](O)[C@H]2O)c(=O)[nH]1`: the binding result in experiment [1], in [3] and in [2] (SYBR Green I displaced) was “no” in each case.

As to `Nc1ncnc2c1ncn2[C@@H]1O[C@H](COP(=O)(O)O)[C@@H](O)[C@H]1O`, the binding result in experiment [5] (SYBR Green I displaced, no binding in titration) is recorded as “no”; in experiment [6] (SYBR Green I displaced, up to 2 mM), “no”; in experiment [7] (setting [14]), “no”; in [12], “yes”; in experiment [2] (50 nM SYBR Green I displaced) it was “yes”; in experiment [11] (setting [14]), “no”. Besides, the Kd in experiment [9] was 13.5 ± 1.6 µM.
